According to the supplement of paper PMC5579334:
± gives the standard deviation of the averaged measurements.

Key:
[1] = system: HS-Sch-2; experiment: drug sensitivity score (DSS, CellTiter-Glo viability, 72 h) (DSS (dimensionless)); higher = more sensitive; extreme values may be limits of the assay
Method in brief: (§1)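 MPNST cell lines and primary human Schwann cells (750–1000 cells per well) went into 384-well plates preprinted with each compound at five concentrations in 10-fold steps. Plates were incubated 72 h at 37 °C, 5% CO2. Viability was read as CellTiter-Glo ATP luminescence, scaled between vehicle and positive-control wells, with duplicates averaged where present. Percent inhibition is at the top concentration; drug sensitivity score and relative IC50 (censored at top concentration) come from four-parameter logistic fits.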

[2] = system: HSC2 (primary human Schwann cells); experiment: as above
Method in brief: as §1

[3] = system: ST8814; experiment: as above
Method in brief: as §1

[4] = system: STS26T; experiment: as above
Method in brief: as §1

[5] = system: HS-PSS; experiment: as above
Method in brief: as §1

[6] = system: HSC1 (primary human Schwann cells); experiment: as above
Method in brief: as §1

[7] = system: S462; experiment: as above
Method in brief: as §1

[8] = system: S1507-2; experiment: as above
Method in brief: as §1

[9] = system: YST-1; experiment: as above
Method in brief: as §1

[10] = system: HSC2 (primary human Schwann cells); experiment: drug sensitivity score (DSS, CellTox-Green cytotoxicity, 72 h) (DSS (dimensionless)); higher = more cytotoxic; extreme values may be limits of the assay
Method in brief: (§2)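 MPNST cell lines and primary human Schwann cells were incubated 72 h at 37 °C in 384-well plates holding five 10-fold compound dilutions. CellTox-Green was added before seeding at a final 1:1000 dilution and reported fluorescence from DNA released by disrupted cells. Signals were scaled to vehicle and positive-control wells, and cultures failing plate quality control were dropped. Drug sensitivity score and relative IC50 come from four-parameter logistic fits, with IC50 censored at the top concentration.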

[11] = system: ST8814; experiment: as above
Method in brief: as §2

[12] = system: STS26T; experiment: as above
Method in brief: as §2

[13] = system: HS-PSS; experiment: as above
Method in brief: as §2

[14] = system: HSC1 (primary human Schwann cells); experiment: as above
Method in brief: as §2

[15] = system: S1507-2; experiment: as above
Method in brief: as §2

[16] = system: HS-Sch-2; experiment: % inhibition of CellTiter-Glo viability at highest tested concentration (72 h), relative to DMSO and benzethonium chloride controls; higher = more inhibition
Method in brief: as §1

[17] = system: HSC2 (primary human Schwann cells); experiment: as above
Method in brief: as §1

[18] = system: ST8814; experiment: as above
Method in brief: as §1

[19] = system: STS26T; experiment: as above
Method in brief: as §1

[20] = system: HS-PSS; experiment: as above
Method in brief: as §1

[21] = system: HSC1 (primary human Schwann cells); experiment: as above
Method in brief: as §1

[22] = system: S462; experiment: as above
Method in brief: as §1

[23] = system: S1507-2; experiment: as above
Method in brief: as §1

[24] = system: YST-1; experiment: as above
Method in brief: as §1

Structure (SMILES): Nc1nc2[nH]cnc2c(=S)[nH]1 [Thioguanine] (max concentration tested 10000 nM)
- drug sensitivity score [1]: 8.53
- drug sensitivity score [2]: 0
- drug sensitivity score [3]: 10.7
- drug sensitivity score [4]: 10.6
- drug sensitivity score [5]: 7.46
- drug sensitivity score [6]: 0.0001
- drug sensitivity score [7]: 7.88 ± 0.29
- drug sensitivity score [8]: 4.38 ± 1.2
- drug sensitivity score [9]: 8.84
- drug sensitivity score [10]: 0
- drug sensitivity score [11]: 0.689
- drug sensitivity score [12]: 4.01
- drug sensitivity score [13]: 0
- drug sensitivity score [14]: 0
- drug sensitivity score [15]: 0.992 ± 1.4
- % inhibition [16]: 79.2%
- % inhibition [17]: -7.39%
- % inhibition [18]: 80.4%
- % inhibition [19]: 81%
- % inhibition [20]: 76.4%
- % inhibition [21]: 10.4%
- % inhibition [22]: 74.5 ± 5.8%
- % inhibition [23]: 60.8 ± 2.1%
- % inhibition [24]: 88.8%

Structure (SMILES): CCN(CCO)CCCOc1ccc2c(Nc3cc(CC(=O)Nc4cccc(F)c4)[nH]n3)ncnc2c1 [AZD1152-HQPA] (max concentration tested 1000 nM)
- drug sensitivity score [1]: 0
- drug sensitivity score [2]: 8.05
- drug sensitivity score [3]: 4.68
- drug sensitivity score [4]: 4.07
- drug sensitivity score [5]: 0.81
- drug sensitivity score [6]: 7.19
- drug sensitivity score [7]: 8.6 ± 0.56
- drug sensitivity score [8]: 3.8464 ± 7.1e-05
- drug sensitivity score [9]: 11.2
- drug sensitivity score [10]: 0.941
- drug sensitivity score [11]: 4.15
- drug sensitivity score [12]: 3.61
- drug sensitivity score [13]: 0
- drug sensitivity score [14]: 0
- drug sensitivity score [15]: 0
- % inhibition [16]: 0.66%
- % inhibition [17]: 39.6%
- % inhibition [18]: 51.2%
- % inhibition [19]: 41.2%
- % inhibition [20]: 9.86%
- % inhibition [21]: 34.7%
- % inhibition [22]: 35.8 ± 1.1%
- % inhibition [23]: 37.8 ± 7.3%
- % inhibition [24]: 40.6%

Structure (SMILES): Cc1ccc(-n2nc(C(C)(C)C)cc2NC(=O)Nc2ccc(OCCN3CCOCC3)c3ccccc23)cc1 [Doramapimod] (max concentration tested 10000 nM)
- drug sensitivity score [1]: 3.93
- drug sensitivity score [2]: 2.53
- drug sensitivity score [3]: 0
- drug sensitivity score [4]: 0
- drug sensitivity score [5]: 6.23
- drug sensitivity score [6]: 1.15
- drug sensitivity score [7]: 0.326 ± 0.46
- drug sensitivity score [8]: 0
- drug sensitivity score [9]: 10.5
- drug sensitivity score [10]: 0
- drug sensitivity score [11]: 0
- drug sensitivity score [12]: 0
- drug sensitivity score [13]: 1.28
- drug sensitivity score [14]: 0
- drug sensitivity score [15]: 1.81 ± 0.51
- % inhibition [16]: 55.8%
- % inhibition [17]: 32.9%
- % inhibition [18]: -7.45%
- % inhibition [19]: 1.72%
- % inhibition [20]: 68.6%
- % inhibition [21]: 26.7%
- % inhibition [22]: 12.1 ± 6.3%
- % inhibition [23]: 0.115 ± 1.9%
- % inhibition [24]: 80.8%

Structure (SMILES): COc1cc(Nc2c(C#N)cnc3cc(OCCCN4CCN(C)CC4)c(OC)cc23)c(Cl)cc1Cl [Bosutinib] (max concentration tested 10000 nM)
- drug sensitivity score [1]: 9.19
- drug sensitivity score [2]: 9.52
- drug sensitivity score [3]: 9.35
- drug sensitivity score [4]: 9.81
- drug sensitivity score [5]: 5.17
- drug sensitivity score [6]: 7.12
- drug sensitivity score [7]: 9.09 ± 1.4
- drug sensitivity score [8]: 9.52 ± 0.072
- drug sensitivity score [9]: 6.63
- drug sensitivity score [10]: 3.59
- drug sensitivity score [11]: 7.01
- drug sensitivity score [12]: 5.46
- drug sensitivity score [13]: 5.37
- drug sensitivity score [14]: 1.14
- drug sensitivity score [15]: 6.25 ± 1.3
- % inhibition [16]: 100%
- % inhibition [17]: 86%
- % inhibition [18]: 96.5%
- % inhibition [19]: 95.4%
- % inhibition [20]: 99.8%
- % inhibition [21]: 80%
- % inhibition [22]: 94.85 ± 0.58%
- % inhibition [23]: 96.4 ± 2%
- % inhibition [24]: 100%

Structure (SMILES): CC[C@]1(O)C[C@@H]2CN(CCc3c([nH]c4ccccc34)[C@@](C(=O)OC)(c3cc4c(cc3OC)N(C)[C@H]3[C@@](O)(C(=O)OC)[C@H](OC(C)=O)[C@]5(CC)C=CCN6CC[C@]43[C@@H]65)C2)C1 [Vinblastine] (max concentration tested 1000 nM)
- drug sensitivity score [1]: 30
- drug sensitivity score [2]: 23.9
- drug sensitivity score [3]: 26.8
- drug sensitivity score [4]: 30.1
- drug sensitivity score [5]: 16.2
- drug sensitivity score [6]: 19.5
- drug sensitivity score [7]: 29.53 ± 0.036
- drug sensitivity score [8]: 22.63 ± 0.18
- drug sensitivity score [9]: 24.8
- drug sensitivity score [10]: 21.5
- drug sensitivity score [11]: 31.1
- drug sensitivity score [12]: 32.9
- drug sensitivity score [13]: 1.24
- drug sensitivity score [14]: 10.7
- drug sensitivity score [15]: 19.7 ± 1.8
- % inhibition [16]: 91.9%
- % inhibition [17]: 87%
- % inhibition [18]: 84.7%
- % inhibition [19]: 92.4%
- % inhibition [20]: 67.2%
- % inhibition [21]: 76%
- % inhibition [22]: 93.02 ± 0.22%
- % inhibition [23]: 81.1 ± 2.3%
- % inhibition [24]: 83.8%

Structure (SMILES): CC1(C)CNc2cc(NC(=O)c3cccnc3NCc3ccncc3)ccc21 [Motesanib] (max concentration tested 10000 nM)
- drug sensitivity score [1]: 0
- drug sensitivity score [2]: 0.232
- drug sensitivity score [3]: 0
- drug sensitivity score [4]: 0
- drug sensitivity score [5]: 0
- drug sensitivity score [6]: 0
- drug sensitivity score [7]: 0
- drug sensitivity score [8]: 0
- drug sensitivity score [9]: 0.25
- drug sensitivity score [10]: 0
- drug sensitivity score [11]: 0
- drug sensitivity score [12]: 0
- drug sensitivity score [13]: 0
- drug sensitivity score [14]: 0
- drug sensitivity score [15]: 0.104 ± 0.15
- % inhibition [16]: 7.18%
- % inhibition [17]: 15.5%
- % inhibition [18]: -4.55%
- % inhibition [19]: 4.89%
- % inhibition [20]: 5.39%
- % inhibition [21]: 9.4%
- % inhibition [22]: 4.64 ± 6.4%
- % inhibition [23]: 6.17 ± 1.9%
- % inhibition [24]: 15%

Structure (SMILES): Nc1cc(C(F)(F)F)c(-c2cc(N3CCOCC3)nc(N3CCOCC3)n2)cn1 [Buparlisib] (max concentration tested 10000 nM)
- drug sensitivity score [1]: 8.73
- drug sensitivity score [2]: 7.01
- drug sensitivity score [3]: 8.12
- drug sensitivity score [4]: 9.07
- drug sensitivity score [5]: 6.19
- drug sensitivity score [6]: 6.85
- drug sensitivity score [7]: 8.35 ± 0.34
- drug sensitivity score [8]: 8.72 ± 0.83
- drug sensitivity score [9]: 12.1
- drug sensitivity score [10]: 7.46
- drug sensitivity score [11]: 4.69
- drug sensitivity score [12]: 8.28
- drug sensitivity score [13]: 0
- drug sensitivity score [14]: 5.07
- drug sensitivity score [15]: 5.23 ± 2.9
- % inhibition [16]: 95.2%
- % inhibition [17]: 88.1%
- % inhibition [18]: 90.9%
- % inhibition [19]: 96.8%
- % inhibition [20]: 70.9%
- % inhibition [21]: 85.1%
- % inhibition [22]: 97.02 ± 0.16%
- % inhibition [23]: 88.421 ± 0.034%
- % inhibition [24]: 95.3%

Structure (SMILES): CC(=O)O[C@@]12CO[C@@H]1C[C@H](O)[C@@]1(C)C(=O)[C@H](O)C3=C(C)[C@@H](OC(=O)[C@H](O)[C@@H](NC(=O)OC(C)(C)C)c4ccccc4)C[C@@](O)([C@@H](OC(=O)c4ccccc4)[C@H]21)C3(C)C [Docetaxel] (max concentration tested 1000 nM)
- drug sensitivity score [1]: 30.8
- drug sensitivity score [2]: 22.3
- drug sensitivity score [3]: 24.8
- drug sensitivity score [4]: 35.5
- drug sensitivity score [5]: 15.2
- drug sensitivity score [6]: 21.9
- drug sensitivity score [7]: 36.7 ± 1.5
- drug sensitivity score [8]: 20.5 ± 0.58
- drug sensitivity score [9]: 29.1
- drug sensitivity score [10]: 24.4
- drug sensitivity score [11]: 27.1
- drug sensitivity score [12]: 36
- drug sensitivity score [13]: 0.9
- drug sensitivity score [14]: 17.3
- drug sensitivity score [15]: 22 ± 1.6
- % inhibition [16]: 96.2%
- % inhibition [17]: 74.4%
- % inhibition [18]: 89.2%
- % inhibition [19]: 99.9%
- % inhibition [20]: 52.7%
- % inhibition [21]: 71.7%
- % inhibition [22]: 96.9 ± 1.2%
- % inhibition [23]: 83.195 ± 0.0062%
- % inhibition [24]: 75.9%
